Experimental data taken from patent publication US9150581B2, “Nicotinic receptor compounds” (priority 2011, dated 2015).
Several values for one entry are separate records, joined by “and”; a condition that tells them apart may be missing. Equal values may be shown once. Where a name gives a salt, the structure may show the parent alone. Read-outs that look alike come from different tables or passages of the source.

Tests used:
Male Sprague-Dawley rats [1] = format: in vivo, rat; details: for Nicotine-like discriminative stimulus effects: compound alone (FIG. 3); for Shift of discriminative stimulus dose-effect curve of small dose of nicotine: small training dose of nicotine
Procedure: A drug discrimination assay was performed to measure the relevant effects of nicotine as it influences tobacco use and abuse. In a drug discrimination assay, food restricted rates are trained to make one response (select one of two nose-poke apertures in the test chamber) following administration of a particular drug, and a different response (select the other aperture) following administration of saline. The appropriate response is followed by delivery of food, and there is no cue as to which aperture will result in food delivery other than the presence or absence of the drug. Once trained, the animals respond on the “drug-associated” aperture following drug administration and on the “saline-associated” aperture following saline administration. In addition, administration of drug doses that are smaller than the training dose produce intermediate responses on the drug-associated aperture such that monotonically increasing dose-response curves can be generated in drug discrimination assays.
Male Sprague-Dawley rats were obtained from Harlan, Inc (Indianapolis, Ind.) and singly housed in polycarbonate cages with water continuously available. All rats weighed approximately 280-290 gms at the start of the experiment. A food-restricted diet of Purina rodent food allowed the animals to grow but maintain motivation to respond to earn food pellets. A 12 hr light-dark cycle turned the lights on at 7:00 am. Standard operant conditioning chambers (ENV-008, Med-Associates, St Albans, Vt.) were used for establishing and evaluating the nicotine discrimination. Each chamber contains two nose-poke devices with apertures containing yellow LED lights on either side of a dipper capable of delivering 50 μl of fluid into a third opening.
Initially, each rat was trained to insert its nose into one of the apertures and received vanilla-flavored Ensure as a consequence. During discrimination training, rats designated in the small dose group were injected with either saline or 0.32 mg/kg of nicotine. Ten consecutive responses on the appropriate lever (one side following saline administration; the other side following nicotine administration) was followed by presentation of the Ensure for 10 s, followed by a 10 s timeout. Selection of the incorrect lever, and completion of the 10 consecutive responses in this lever results in a 10 s timeout. Criteria for learning the discrimination are 1) responding on the first FR of the session is completed on the injection appropriate aperture; 2) >85% of the total session responses are made on the injection-appropriate aperture.
Each session was divided into several components of 25 min duration. Following an injection, the first five minutes of each component were black out, and the stimulus lights were illuminated for the remaining 20 min, during which injection-appropriate responses were reinforced.
One to four components comprised daily sessions Animals were injected with saline or nicotine prior to the start of the session, or following one or more of the […] components. Possible injection conditions were (S=saline, N=nicotine) S—S—S—S; N; S—N; S—S—N; S—S—S—N. Nicotine administration is always given in the final component if it is given at all.
If a potential antagonist was given, it was administered prior to the session at a time determined by earlier studies to be sufficient for peak effects to be established. The session components then comprised increasing doses of nicotine, each given before consecutive blackout periods. No more than two antagonist sessions were given each week, and once each month a nicotine dose-response curve was determined to assure no changes in sensitivity to nicotine. Full generalization to the nicotine discriminative cue is defined by >85% responding on the drug-associated aperture and completing at least one FR.
A second, large-nicotine trained group of rats were treated in an identical manner except that their training dose of nicotine is 1.78 mg/kg. […]

Male Sprague-Dawley rats [2] = details: for Blockade of nicotine's hypertensive effects: given prior to 1.78 mg/kg nicotine, RTI-154 10 mg/kg, DHβE 5.6 mg/kg
Procedure: Male Sprague-Dawley rats (approximately 300 g) were obtained from Harlan, Inc. (Indianapolis, Ind.) and group-housed upon arrival. Food and water were freely available for all rats at all times. Housing and experimental rooms were maintained on a 12 h light/dark cycle with lights on at 7:00 AM with an average temperature of 21° C.
Surgical Procedures. To measure changes in heart rate and mean arterial pressure, rats were implanted with telemetric transmitters (TA11PAC40 or TL11M2-C50-PXT, Data Sciences International, Transoma Medical Inc., St. Paul, Minn., USA) under ketamine (90 mg/kg, i.p.) and xylazine (10 mg/kg, i.p.) anesthesia. An incision is made in the skin approximately 1 in to the left or right of the spine and over the left or right thigh to expose the femoral artery. The transmitter is placed into the incision on the dorsal side and into a subcutaneous pocket (made by separating the connective tissue between the skin and muscle) on the side of the abdomen. This positioning prevents the rats from manipulating the incision site and gaining access to the transmitter. The catheter extending from the base of the transmitter is threaded subcutaneously, placed 3 cm into the femoral artery, and secured with suture. Incisions were closed with 5.0 Ethicon nylon monofilament suture. Following surgery, rats were singly-housed and monitored for at least 7 days for signs of recovery (normal eating, drinking, and defecating patterns) prior to experimentation. All rats continued to have free access to food and water at all times.
Telemetry System. The system consists of battery-operated transmitters surgically implanted (described above), Physiotel® receivers, the DSI Data Exchange Matrix, and the Dataquest A.R.T. system, which collects and stores digital data from the receiver onto a computer (Data Sciences International, Transoma Medical Inc., St. Paul, Minn., USA). Blood pressure and heart rate data were analyzed by the Dataquest A.R.T. Gold Analysis 3.01 software.
At the start of an experiment, rats' home cages were placed on top of the receivers, and baseline data was collected for at least 1 h to allow heart rate and blood pressure to return to resting levels. All rats were given a saline injection to ensure that they are habituated to the injection and handling procedure on the test day. After heart rate and blood pressure returned to resting levels again, rats were injected with a treatment, consisting either of a single drug dose or a pretreatment drug administered 15 min prior to a test drug. Data was collected for at least 2 h following the last injection. All injections were administered subcutaneously (s.c.) in a volume of 1 ml/kg.
Each rat was used to evaluate multiple experimental conditions, such that each rat may receive as many as 4-6 different treatments, one per week with at least 6 days between drug exposures. […] Once the rats weigh approximately 450 g (body weight at time of transmitter implant: 300-350 g), the rat is no longer used for experiments, and the transmitter is removed.
Data were collected throughout baseline, before, and after drug treatments. The analysis program calculated an average heart rate and mean arterial pressure (MAP) every 10 sec. These 10 secepochs are then averaged over 1 min per rat, and data from at least 6 rats were averaged for each treatment group.

mice [3] = test: Tail-flick test (antinociception); format: in vivo, mouse; details: @ 10 mg/kg, sc
Procedure: (§1) In the tail-flick method of D'Amour and Smith, (D'Amour, F. E.; Smith, D. L. J. Pharmacol. Exp. Ther. 1941, 72, 74-79), the tail is exposed to a heat lamp and the amount of time taken for the animal to move (flick) its tail away from the heat is recorded. […] Mice were placed into a 10-cm wide glass cylinder on a hot plate (Thermojust Apparatus) maintained at 55.0° C. Two control latencies at least 10 min apart were determined for each mouse. […] The reaction time was scored when the animal jumped or licked its paws. The mice were tested 5 min after subcutaneous (sc) injections of nicotinic ligands for the dose-response determination. Antinociceptive response was calculated as percentage of maximum possible effect (% MPE, where % MPE=[(test−control)/(maximum latency−control)×100]).

mice [4] = test: Antagonism of nicotine antinociception, hot-plate; format: in vivo, mouse; details: for AD50 Hot-Plate: mice pretreated sc 10 min before nicotine 2.5 mg/kg sc; for Antagonism Hot-Plate, % at dose: before nicotine 2.5 mg/kg sc
Procedure: as §1
(§2) Nicotine was administered at a dose of 2.5 mg/kg, sc (an ED84 dose), and mice were tested 5 min later. ED50 and AD50 values with 95% confidence limits were determined.

mice [5] = test: Spontaneous activity (photocell activity cages); format: in vivo, mouse; details: sc
Procedure: (§3) Interruptions of the photocell beams (two banks of eight cells each) were then recorded for the next 10 min. Data were expressed as number of photocell interruptions. Rectal temperature was measured by a thermistor probe (inserted 24 mm) and digital thermometer (Yellow Springs Instrument Co., Yellow Springs, Ohio). […] The difference in rectal temperature before and after treatment was calculated for each mouse. The ambient temperature of the laboratory varied from 21 to 24° C. from day to day.

mice [6] = test: Hypothermia (rectal temperature); format: in vivo, mouse; details: sc; for Hypothermia, % effect at dose: @ 10 mg/kg
Procedure: as §3

α4β2 nAChR = α4β2 nAChR (Rattus norvegicus (Rat), UniProt P09483+P12390); test: Inhibition of [3H]epibatidine binding at the α4β2 nAChR in male rat cerebral cortex; details: αβ [3H]Epibatidine (Ki, nM)
mice [7] = test: Antagonism of nicotine antinociception, tail-flick; format: in vivo, mouse; details: mice pretreated sc 10 min before nicotine 2.5 mg/kg sc
Procedure: as §1, §2

mice [8] = test: Hot-plate test (antinociception); format: in vivo, mouse; details: @ 10 mg/kg, sc
Procedure: as §1

Male ICR adult mice = format: in vivo, mouse
α7 nAChR = α7 nAChR (Rattus norvegicus (Rat), UniProt Q05941); format: binding; details: read-out: α7 [125I]iodoMLA (Ki)
[9] = listed as (±)-154, hydrochloride

α4β2 nAChR, sequence (P09483 31-630 limits assumed): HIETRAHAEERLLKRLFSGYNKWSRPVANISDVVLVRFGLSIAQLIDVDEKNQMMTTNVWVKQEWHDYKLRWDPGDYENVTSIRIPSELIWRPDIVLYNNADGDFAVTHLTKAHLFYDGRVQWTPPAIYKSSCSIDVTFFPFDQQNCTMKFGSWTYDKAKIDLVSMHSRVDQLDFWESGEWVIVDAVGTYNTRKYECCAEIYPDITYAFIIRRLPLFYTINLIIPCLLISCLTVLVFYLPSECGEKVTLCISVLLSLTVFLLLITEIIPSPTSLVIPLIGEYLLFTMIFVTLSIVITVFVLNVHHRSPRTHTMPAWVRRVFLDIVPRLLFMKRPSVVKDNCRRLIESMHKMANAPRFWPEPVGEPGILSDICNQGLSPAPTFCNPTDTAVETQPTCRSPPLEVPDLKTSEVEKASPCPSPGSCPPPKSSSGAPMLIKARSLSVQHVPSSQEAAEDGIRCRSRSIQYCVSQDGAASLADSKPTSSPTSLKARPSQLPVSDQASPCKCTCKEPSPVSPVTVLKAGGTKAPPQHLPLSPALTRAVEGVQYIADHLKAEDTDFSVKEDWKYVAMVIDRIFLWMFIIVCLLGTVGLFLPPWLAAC
α4β2 nAChR, sequence (P12390 25-500 limits assumed): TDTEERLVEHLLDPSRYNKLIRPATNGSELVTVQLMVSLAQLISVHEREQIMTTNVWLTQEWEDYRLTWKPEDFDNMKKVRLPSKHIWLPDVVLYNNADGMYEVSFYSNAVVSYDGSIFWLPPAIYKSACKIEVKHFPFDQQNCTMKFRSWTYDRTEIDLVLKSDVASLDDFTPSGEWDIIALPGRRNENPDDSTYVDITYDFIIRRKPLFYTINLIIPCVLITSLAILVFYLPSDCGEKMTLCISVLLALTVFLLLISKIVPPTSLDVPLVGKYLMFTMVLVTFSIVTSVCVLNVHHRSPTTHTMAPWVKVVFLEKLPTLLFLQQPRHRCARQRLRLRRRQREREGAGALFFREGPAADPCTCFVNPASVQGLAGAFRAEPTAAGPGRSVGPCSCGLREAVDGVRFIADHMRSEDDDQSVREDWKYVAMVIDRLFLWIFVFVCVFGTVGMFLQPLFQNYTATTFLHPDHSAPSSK
α7 nAChR, sequence (Q05941 23-502 limits assumed): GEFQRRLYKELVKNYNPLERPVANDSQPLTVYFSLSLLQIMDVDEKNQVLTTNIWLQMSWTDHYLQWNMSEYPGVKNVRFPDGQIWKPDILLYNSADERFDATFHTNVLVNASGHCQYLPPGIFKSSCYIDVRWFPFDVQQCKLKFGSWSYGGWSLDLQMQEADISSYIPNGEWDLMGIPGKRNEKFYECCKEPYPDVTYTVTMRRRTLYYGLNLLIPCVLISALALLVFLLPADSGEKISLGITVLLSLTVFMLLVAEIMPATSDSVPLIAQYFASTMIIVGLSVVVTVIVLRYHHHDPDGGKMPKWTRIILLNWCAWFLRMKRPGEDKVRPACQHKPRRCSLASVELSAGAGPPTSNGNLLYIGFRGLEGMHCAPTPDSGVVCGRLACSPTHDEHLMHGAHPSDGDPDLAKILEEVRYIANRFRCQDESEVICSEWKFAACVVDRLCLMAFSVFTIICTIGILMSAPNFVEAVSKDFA

Clc1ccc(C2CC3CCC2N3)cn1 (single isomer, unassigned; (-)) [(−)-epibatidine, epibatidine]
Nicotine-like discriminative stimulus effects (Male Sprague-Dawley rats [1]): extremely potent full nicotine-like agonist
Effect on blood pressure (Male Sprague-Dawley rats [2]; rats, s.c., compound alone): substantial increases in blood pressure

CO[C@H]1CC=C2CCN3CCC4=C(CC(=O)OC4)[C@]23C1 [DHβE, dihydro-beta-erythroidine]
Effect on rate-decreasing effects of nicotine (Male Sprague-Dawley rats [1]): did not antagonize
Shift of discriminative stimulus dose-effect curve of small dose of nicotine (Male Sprague-Dawley rats [1]): parallel rightward shifts
Shift of large dose-nicotine dose-response curve (Male Sprague-Dawley rats [1]; training dose of nicotine 1.78 mg/kg): much less robust rightward shifts
Blockade of nicotine's hypertensive effects (Male Sprague-Dawley rats [2]; rats): did not block
Cardiovascular effects (heart rate and mean arterial pressure) (Male Sprague-Dawley rats [2]; rats, s.c., compound alone): no cardiovascular effects
Effect on blood pressure (Male Sprague-Dawley rats [2]; rats, s.c., compound alone): no changes in blood pressure

CNC1(C)C2CCC(C2)C1(C)C (centres unmarked) [Mecamylamine, mecamylamine]
Effect on rate-decreasing effects of nicotine (Male Sprague-Dawley rats [1]): parallel rightward shift
Shift of discriminative stimulus dose-effect curve of small dose of nicotine (Male Sprague-Dawley rats [1]): rightward and downward shift

Fc1ncc(C2CC3CCC2N3)cc1-c1ccc(C(F)(F)F)cc1 (centres unmarked) [RTI-7527-153, 2-(5-(4-Trifluoromethane-phenyl)-6-fluoro-pyridin-3-yl)-7-aza-bicyclo[2.2.1]heptane hydrochloride]
Tail-Flick, % effect at dose (mice [3]): 4% @ 10
AD50 Hot-Plate (mice [4]): 6 mg/kg
Spontaneous Activity, % effect at dose (mice [5]; @ 10 mg/kg): 5% @ 10
Hypothermia, % effect at dose (mice [6]): 0% @ 10
Ki (α4β2 nAChR): 0.44 ± 0.05 nM
AD50 Tail-Flick (mice [7]): 0.038 mg/kg
Hot-Plate, % effect at dose (mice [8]): 6% @ 10

CS(=O)(=O)c1ccc(-c2cc(C3CC4CCC3N4)cnc2F)cc1 (centres unmarked) [RTI-7527-154, 2-(5-(4-Methanesulphonyl-phenyl)-6-fluoro-pyridin-3-yl)-7-aza-bicyclo[2.2.1]heptane hydrochloride]
Effect on rate-decreasing effects of nicotine (Male Sprague-Dawley rats [1]): did not, however, alter the potency of nicotine
Effect on rates of responding (Male Sprague-Dawley rats [1]; compound alone): did not suppress ongoing rates of responding
Nicotine-like discriminative stimulus effects (Male Sprague-Dawley rats [1]): no efficacy
Blockade of nicotine's hypertensive effects (Male Sprague-Dawley rats [2]; rats): did not block
Cardiovascular effects (heart rate and mean arterial pressure) (Male Sprague-Dawley rats [2]; rats, s.c., compound alone): no cardiovascular effects
Tail-Flick, % effect at dose (mice [3]; [9]): 6% @ 10 and 5% @ 10
Blockade of development of nicotine-induced CPP (Male ICR adult mice; mouse, in vivo): totally blocked
Preference or aversion induced by compound itself in CPP (Male ICR adult mice; mouse, in vivo): did not induce significant preference or aversion
Antagonism Hot-Plate, % at dose (mice [4]; @ 5000 μg/kg): 40% @
AD50 Hot-Plate (mice [4]): 2.6 mg/kg
Spontaneous Activity, % effect at dose (mice [5]; @ 5 mg/kg): 0% @ 5;
Hypothermia, % effect at dose (mice [6]; [9]): 1% @ 10 and 1.2% @ 10
Ki (α4β2 nAChR): 0.17 nM and 0.08 nM

N#Cc1ccc(-c2cc(C3CC4CCC3N4)cnc2F)cc1 (centres unmarked) [RTI-7527-155, 2-(5-(4-Cyano-phenyl)-6-fluoro-pyridin-3-yl)-7-aza-bicyclo[2.2.1]heptane hydrochloride]
Tail-Flick, % effect at dose (mice [3]): 4% @ 10
Antagonism Hot-Plate, % at dose (mice [4]; @ 10000 μg/kg): 24% @
Spontaneous Activity, % effect at dose (mice [5]; @ 10 mg/kg): 0% @ 10
Hypothermia, % effect at dose (mice [6]): 0% @ 10
Ki (α4β2 nAChR): 0.19 ± 0.012 nM
AD50 Tail-Flick (mice [7]): 0.006 mg/kg
Hot-Plate, % effect at dose (mice [8]): 18% @ 10

CN1CCCC1c1cccnc1 (centres unmarked) [nicotine]
Effect on blood pressure (Male Sprague-Dawley rats [2]; rat, in vivo, sc): substantial increases in blood pressure

c1cnc2cc3c(cc2n1)[C@@H]1CNC[C@H]3C1 [varenicline, reference compound]
Nicotine-like discriminative stimulus effects (Male Sprague-Dawley rats [1]): nearly full nicotine-like discriminative stimulus effects
Ki (α7 nAChR): 32.5 nM
Effect on blood pressure (Male Sprague-Dawley rats [2]; rats, s.c., compound alone): substantial increases in blood pressure
Tail-Flick, % effect at dose (mice [3]): 11% @ 10
Preference or aversion induced by compound itself in CPP (Male ICR adult mice; compound alone at the doses used): without a significant effect on its own
Blockade of nicotine CPP (Male ICR adult mice; mouse, s.c. 10 min prior to nicotine 0.5 mg/kg, several doses): dose-dependently blocked nicotine CPP
AD50 Hot-Plate (mice [4]): 0.47 mg/kg
ED50 (mice [5]; Mus musculus): 2.1 mg/kg
ED50 (mice [6]; Mus musculus): 2.8 mg/kg
AD50 Tail-Flick (mice [7]): 0.0002 mg/kg
Hot-Plate, % effect at dose (mice [8]): 10% @ 10

α-conotoxin AUIB
Blockade of development of nicotine reward in the CPP test (Male ICR adult mice; mouse, in vivo): blocked the development of nicotine reward
